Data from patent US4882359A, “Azacycloalkane derivatives, absorption promoters containing the derivatives as the effective ingredient and external preparations containing the absorption promoters” (priority 1986, dated 1989).
Read-outs that look alike come from different tables or passages of the source.

Assays:
[1] = Percutaneous absorption of pindolol in rats, serum concentration by HPLC; assay type: in vivo, Wistar-strain male rats; conditions: relative to Control (Vehicle) = 1.0 of the same series in Table 5
Procedure: There were provided groups each consisting of four Wistar-strain male rats each weighing 200 to 250 g and having their dorsal skin hair shorn with an electric shaver.
Each of the test solutions (pindolol-containing preparations) was applied to the shorn dorsal skin of test rats of one of the groups in an amount of 150 μl/2.5×2.5 cm^2 and then sealed up. Three hours after the application of the test solution, the blood of the test rats was collected and measured for serum concentration of pindolol by HPLC.
For comparison, the above procedure was followed except that there was used a control solution which was the same as said test solution except for non-use of any compounds of this invention, and also followed using a comparative test solution which was the same as the test solution except for the substitution of a comparative compound for the compound of this invention.

[2] = Skin penetration of pindolol from test solution, diffusion cell method; assay type: in vitro ADME, female hairless mice
glucose level in blood [3] = assay: Percutaneous absorption of glibenclamide: glucose level in blood of glucose-loaded rats; assay type: in vivo, Wistar-strain male rats
Procedure: There were prepared control and test solutions having the following respective formulations (Table 8): […]
In the tests, there were used groups each consisting of four Wistar-strain male rats which weighed about 200 to 250 g and abstained from food for 24 hours.
Each of the control solutions A and B and the test solution indicated in the above Table 8 was applied to the dorsal skins, shorn by an electric clipper or shaver, of the rats of one group in an amount of 175 μl/2.5×2.5 cm^2 and then sealed up. Three hours after sealing up, 1.5 ml of 20% glucose was subcutaneously injected into said rats. Two hours after the glucose injection, the blood of the rats was collected and measured for glucose level in blood.
For comparison, the above procedure was followed except that azone was substituted for the compound of Example 12 in the test solution.
For further comparison, the blood of rats of one group which had been subjected only to 24 hours' abstinence from food (this group being hereinafter referred to as "normal group"), was measured for glucose level in blood. The rat groups to which the control solution A, the control solution B and the test solution were applied, are hereinafter referred to as "control group A", "control group B" and "test group", respectively.

[4] = Skin penetration of 5-FU from test solution, diffusion cell method; assay type: in vitro ADME, female hairless mice
[5] = Skin penetration of various drugs from test solution, diffusion cell method; assay type: in vitro ADME, female hairless mice
glucose level in blood [6] = assay: Rectal absorption of insulin from suppository: glucose level in blood of rabbits; assay type: in vivo, male rabbits; conditions: insulin suppository 0.3 g/kg rectal, 3% promoter where used
Procedure: There were prepared the following suppositories for use in normal, control and test groups, respectively, each group consisting of five male rabbits weighing 2.5 to 3.5 kg each.
The three suppositories were into the rectums of the rabbit groups in an amount of 0.3 g suppository/kg, respectively. Thereafter, blood was collected from the rabbits through their ear vein three times with the lapse of time to measure the three collected blood samples for glucose level in blood by a glucose oxidase method. […] The results are indicated in terms of a change in glucose level in blood with respect to the glucose level in blood prior to the administration of the suppositories.

[7] = Rectal absorption of antibiotics from suppositories, serum concentration by HPLC; assay type: in vivo, male rabbits; conditions: relative to Control (Vehicle) = 1.0, equals AUC ratio
Procedure: There was prepared the following suppositories of antibiotics for use in control and test groups, respectively, each group consisting of five male rabbits weighing 2.5 to 3.5 kg each.

[8] = Rectal absorption of indomethacin and 5-FU from suppositories; assay type: in vivo, rabbits
Procedure: Each of male rabbits was fasted for 24 hrs prior to the following Experiment. The two suppositories were into the rectums of the rabbit groups in an amount of 0.3 g suppository/kg, respectively. Thereafter, blood was collected from the rabbits through their ear vein to measure the collected blood samples for the serum concentration of antibiotic by HPLC.
There was prepared test suppositories having the following formulations: […]
The same procedure of Example 151 was followed except that the above suppositories were used and that 3 or 4 rabbits were used in each group.

[9] = tested on: dorsal skin of Japanese-native rabbits; assay: Primary skin irritation test (Draize's method); assay type: in vivo; design: key to Average irritation score, 24 hours / Average irritation score, 48 hours / Average irritation score, 72 hours: Draize points: 0-2 mild, 2-6 moderate, 6-8 severe irritation
Procedure: As one of tests on the compounds of this invention for their topical toxicity, a primary skin irritation test was made on skins using rabbits as the subjects. More particularly, an adhesive plaster for use in batch tests, to which 100 μl of a 3% test solution of each of the compounds of Examples 12, 37, 57 and 73 of this invention in 100 ml of polyethylene glycol 300 had dropwise been applied, was applied to the hair-shorn dorsal skin of three Japanese-native rabbits weighing 2.5 to 3.0 kg each and then sealed up on the dorsal skin for 24 hours. The rabbits were evaluated three times for their dorsal skin irritative reaction 24, 48 and 72 hours after removal of the plaster by using a method in accordance with the Draize's method.
The results are as shown in Table 18 in which the overall evaluation is represented by the following equation. [formula] and is graded into mild irritation (0-2 points), moderate irritation (2-6 points) and severe irritation (6-8 points).

[10] = relative to Control (Vehicle) = 1.0; equals ratio of 48 hrs values
Procedure: There were investigated the effects of the compound of this invention on the percutaneous penetration of ketoprofen using the dorsal skin of female hairless mice (each 9 weeks old) by a diffusion cell method which comprised adding 0.5 ml of said test solution to the donor side and measuring the amount of ketoprofen permeated into the receptor layer by performance liquid chromatography (HPLC). For comparison, the above procedure was followed except that a control solution containing no compound of this invention was substituted for said test solution containing the compound of this invention.

[11] = hydrophylic ointment, relative to Control (Vehicle) = 1.0
[12] = gel ointment, relative to Control (Vehicle) = 1.0
[13] = acryl tape, relative to Control (Vehicle) = 1.0
[14] = relative to Control (Vehicle) = 1.0
Procedure: There were investigated the effects of the compound of this invention on the percutneous penetration of phenol red which is difficult to be penetrated using the dorsal skin of female hairless mice (each 9 weeks old) by a diffusion cell method which comprised adding 0.5 ml of a sodium chloride injection containing 2 mM of phenol red to the donor side and measuring the amount of phenol red permeated into the receptor layer by high-pace optimal densitometric meter (559 nm).

in vivo = conditions: rat

Compound: CCCCCCCCCCSCCN1CCCC1=O [Example 12]
- Activity (serum concentration of pindolol) [1]: 47.8
- Cumulative amount of pindolol permeated, 24 hrs later [2]: 50.0 ± 7.0 µM
- Cumulative amount of pindolol permeated, 48 hrs later [2]: 127.6 ± 4.8 µM
- Activity (pindolol permeation) ([2]; test solution, relative to Control (Vehicle) = 1.0): 34.5
- Glucose level (glucose level in blood [3]; glibenclamide 0.6 wt.% solution on dorsal skin, two hours after s.c. 20% glucose): 115 ± 4 mg/dL
- Inhibition rate (glucose level in blood [3]; glucose level, relative to control group A and normal group): 46.4%
- Cumulative amount of 5-FU permeated, 24 hrs later ([4]; 3.0 wt.% test compound, 5-FU 1.8 wt.% in ethanol/water, 24 hrs): 465 ± 83 µM
- Cumulative amount of 5-FU permeated, 48 hrs later ([4]; 3.0 wt.% test compound, 5-FU 1.8 wt.% in ethanol/water, 48 hrs): 963 ± 22 µM
- Activity (5-FU permeation) ([4]; relative to Control (Vehicle) = 1.0): 4.7
- Activity (skin penetration) ([5]; drug: 1,25-Dihydroxy VD3): 5.4
- Activity (skin penetration) ([5]; drug: 8-Bromocyclic AMP): 50.3
- Activity (skin penetration) ([5]; drug: Chlordiazepoxide): 4.8
- Activity (skin penetration) ([5]; drug: Clonidine): 6.3
- Activity (skin penetration) ([5]; drug: Clotrimazole): 3.2
- Activity (skin penetration) ([5]; drug: Diazepam): 3.5
- Activity (skin penetration) ([5]; drug: Erythromycin): 4.5
- Activity (skin penetration) ([5]; drug: Estradiol): 2.0
- Activity (skin penetration) ([5]; drug: Ketotifen): 3.8
- Activity (skin penetration) ([5]; drug: Lidocain): 10.3
- Activity (skin penetration) ([5]; drug: Nicotinic acid): 15.3
- Activity (skin penetration) ([5]; drug: Nifedipine): 6.2
- Activity (skin penetration) ([5]; drug: Prostaglandin E2): 4.8
- Activity (skin penetration) ([5]; drug: Scopolamin): 2.4
- Activity (skin penetration) ([5]; drug: Testosterone): 2.5
- Activity (skin penetration) ([5]; drug: Triamcinolone): 5.5
- Activity (skin penetration) ([5]; drug: p-Aminobenzoic acid): 12.3
- Changes of glucose level to the initial, 0.5 hr (glucose level in blood [6]; 0.5 hr): -30 mg/dL
- Changes of glucose level to the initial, 1 hr (glucose level in blood [6]; 1 hr): -29 mg/dL
- Changes of glucose level to the initial, 3 hrs (glucose level in blood [6]; 3 hrs): -22 mg/dL
- Activity (rectal absorption) ([7]; ABPC suppository): 6.3
- Activity (rectal absorption) ([7]; CET suppository): 3.0
- Activity (rectal absorption) ([8]; drug: 5-FU): 4.8
- Activity (rectal absorption) ([8]; drug: Indomethacin): 2.5
- Average irritation score, 24 hours ([9]; 3% solution in polyethylene glycol 300, 24 hours after removal of plaster): 0.3 ± 0.3
- Average irritation score, 48 hours ([9]; 3% solution in polyethylene glycol 300, 48 hours after removal of plaster): 0.3 ± 0.3
- Average irritation score, 72 hours ([9]; 3% solution in polyethylene glycol 300, 72 hours after removal of plaster): 0.5 ± 0.5
- Overall evaluation (skin irritation) ([9]; graded from irritation scores at 24, 48 and 72 hours): Mild (mild irritation (0-2 points))
- Activity (ketoprofen permeation) [10]: 3.3
- Activity (indomethacin permeation) [11]: 3.2
- Activity (indomethacin permeation) [12]: 18.4
- Activity (pindolol permeation) [13]: 3.9
- Activity (phenol red permeation) [14]: 86.5
- LD50 at 168 h (in vivo; po): > 5000 mg/kg
- LD50 at 168 h (in vivo; sc): > 5000 mg/kg
